What all share (type): physicochemical
Series [1] is described as follows: Cross-over experiments in custom-built H-cell with FAPQ-375-PP membrane. Conditions: 0.1 M redoxomer in anhydrous acetonitrile; two layers FAPQ-375-PP membrane; CV of blank side up to 24 h. The protocol:
We compared cross-over fractions of our newly synthesized redoxomers with our previous redoxomers such as MEEPT and EPRT-TFSI using a custom-built H-cell. A stack of two layer of FAPQ-375-PP membrane pre-soaked in acetonitrile for 24 h was used as membrane between two compartments of H-cell. For each set of experiment, a 0.1 M solution of redoxomer in anhydrous acetonitrile on the left side and acetonitrile (blank solution) on the right side. The cross over fractions were determined by cyclic voltammetry of the solution from the blank side in 0 h, 2 h, 4 h, 8 h, 12 h, and 24 h in a argon-filled glovebox.

A short description of series [2]: Solubility / miscibility measurement (NMR method, internal standard). The settings on record: for solubility: organic solvent or mixture, NMR method. The protocol:
The MEEPRT-TFSI monomer is a viscous liquid at room temperature, the miscibility was determined in acetonitrile and 0.1 M TEATFSI in acetonitrile. In both solvents, it is miscible when mixed with 1:10, 10:1, and 1:1 ratio by wt. of acetonitrile:redoxomers. Solubility of redoxomers were determined by NMR method using 1,4-bis(trifluoromethyl)benzene as an internal standard.

A short description of series [3]: Cyclic voltammetry of monomer and dimer. The settings on record: for 1st oxidation potential / ipa/ipc / peak separation: 1 mM in 0.1 M TEABF4/ACN; for redox event (number of electrons, reversibility) / oxidation potential: 10 mM solution; for redox event (number of electrons, reversibility): cyclic voltammetry; for ipa/ipc / peak separation: 1st oxidation; for oxidation potential: referenced to Fc/Fc+, glassy carbon working electrode. The protocol: The electrochemical stability and reversibility of redox-events were determined by cyclic voltammetry experiments, which were carried out in a CH Instrument potentiostat with glassy carbon electrode as a working electrode, Pt-wire electrode as a counter electrode and a silver electrode as a reference electrode. […]

In turn, `COCCOCCN1c2ccccc2Sc2ccccc21` [MEEPT, reference compound] registered a cross over fraction in series [1] of 0.0471.
Consider `CC(C[N+]1c2ccccc2Sc2ccccc21)[N+](C)(C)CCOCCOCC[N+](C)(C)C(C)C[N+]1c2ccccc2Sc2ccccc21` (stereo not drawn) [dimer radical cation], for which the “miscibility of radical cations” value in series [2] (in acetonitrile, 1:1, 10:1 and 1:10 by wt.) is reported as “completely miscible”.
On to `COCCOCC[N+](C)(C)C(C)CN1c2ccccc2Sc2ccccc21` (stereo not drawn) [MEEPRT-TFSI], for which the miscibility result in series [2] (in 0.1 M TEATFSI in acetonitrile, 1:10, 10:1 and 1:1 ratio by wt.) is on record as “miscible”. Further, in series [2] (in acetonitrile, 1:10, 10:1 and 1:1 ratio by wt. acetonitrile:redoxomers, room temperature), the miscibility result was “miscible”. In addition, in series [3], the 1st oxidation potential was determined as 0.54 V; the “redox event (number of electrons, reversibility)” value was “single electron reversible redox reaction”; the ipa/ipc came out at 1.06; the peak separation is 59 mV. In series [3], this molecule registered an oxidation potential of 0.54 V. The same molecule showed a cross over fraction in series [1] of 0.0346.
What is called solubility is how much of the substance goes into solution per volume. Turning to `CC(CN1c2ccccc2Sc2ccccc21)[N+](C)(C)CCOCCOCC[N+](C)(C)C(C)CN1c2ccccc2Sc2ccccc21` (stereo not drawn) [EEEPRT-TFSI2], the solubility in series [2] (in 0.1 M TEATFSI in acetonitrile) was determined as 1200 mM. Besides, in series [2] (in acetonitrile), the solubility was determined as 1600 mM. Further, in series [3], the 1st oxidation potential came out at 0.54 V; the “redox event (number of electrons, reversibility)” value is given as “two-electron reversible redox event”; the ipa/ipc turned out to be 1.06; the peak separation was determined as 59 mV. Besides, the oxidation potential result in series [3] is “same potential”. This molecule yielded a cross over fraction in series [1] of 0.0037.

These data come from patent publication US20240282989A1, “PHENOTHIAZINE DERIVATIVES AND REDOX-FLOW BATTERIES” (University of Kentucky Research Foundation, priority 2023, published 2024).
